According to patent publication US20250255874A1, “Methods for Treating Immune Thrombocytopenia By Administering (R)-2-[3-[4-Amino-3-(2-Fluoro-4-Phenoxy-Phenyl)Pyrazolo[3,4-D]Pyrimidin-1-YL]Piperidine-1-Carbonyl]-4-Methyl-4-[4-(Oxetan-3-YL)Piperazin-1-YL]Pent-2-Enentrile” (Principia Biopharma Inc., priority 2022, published 2025):

Tested on: patients with relapsed/refractory immune thrombocytopenia
Test: Phase 1/2 study (NCT03395210) Part A, safety;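 further: adverse events graded by NCI CTCAE version 4.0, with worsening of pre-existing conditions counted as adverse events, analysed in the Safety Population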
Settings: Safety Population; N = 60

CC(C)(C=C(C#N)C(=O)N1CCC[C@@H](n2nc(-c3ccc(Oc4ccccc4)cc3F)c3c(N)ncnc32)C1)N1CCN(C2COC2)CC1 [rilzabrutinib, (R)-2-[3-[4-amino-3-(2-fluoro-4-phenoxy-phenyl)pyrazolo[3,4-d]pyrimidin-1-yl]piperidine-1-carbonyl]-4-methyl-4-[4-(oxetan-3-yl)piperazin-1-yl]pent-2-enenitrile]
Back pain, TEAEs Due to Any Cause, Grade 2: 1 (2) number of patients (percent)
Back pain, Treatment-Related TEAEs, Any grade: 1 (2) number of patients (percent)
Back pain, Treatment-Related TEAEs, Grade 2: 1 (2) number of patients (percent)
Conjunctival hemorrhage, TEAEs Due to Any Cause, Any grade: 5 (8) number of patients (percent)
Conjunctival hemorrhage, TEAEs Due to Any Cause, Grade 1: 5 (8) number of patients (percent)
Contusion, TEAEs Due to Any Cause, Any grade: 11 (18) number of patients (percent)
Contusion, TEAEs Due to Any Cause, Grade 1: 7 (12) number of patients (percent)
Contusion, TEAEs Due to Any Cause, Grade 2: 3 (5) number of patients (percent)
Contusion, TEAEs Due to Any Cause, Grade 3/4: 1 (2) number of patients (percent)
Contusion, Treatment-Related TEAEs, Any grade: 1 (2) number of patients (percent)
Contusion, Treatment-Related TEAEs, Grade 1: 1 (2) number of patients (percent)
Costochondritis, TEAEs Due to Any Cause, Any grade: 2 (3) number of patients (percent)
Costochondritis, TEAEs Due to Any Cause, Grade 1: 2 (3) number of patients (percent)
Cough, TEAEs Due to Any Cause, Any grade: 2 (3) number of patients (percent)
Cough, TEAEs Due to Any Cause, Grade 1: 2 (3) number of patients (percent)
Decreased appetite, TEAEs Due to Any Cause, Any grade: 1 (2) number of patients (percent)
Decreased appetite, TEAEs Due to Any Cause, Grade 1: 1 (2) number of patients (percent)
Decreased appetite, Treatment-Related TEAEs, Any grade: 1 (2) number of patients (percent)
Decreased appetite, Treatment-Related TEAEs, Grade 1: 1 (2) number of patients (percent)
Defecation urgency, TEAEs Due to Any Cause, Any grade: 1 (2) number of patients (percent)
Defecation urgency, TEAEs Due to Any Cause, Grade 2: 1 (2) number of patients (percent)
Defecation urgency, Treatment-Related TEAEs, Any grade: 1 (2) number of patients (percent)
Defecation urgency, Treatment-Related TEAEs, Grade 2: 1 (2) number of patients (percent)
Diarrhea, TEAEs Due to Any Cause, Any grade: 22 (37) number of patients (percent)
Diarrhea, TEAEs Due to Any Cause, Grade 1: 19 (32) number of patients (percent)
Diarrhea, TEAEs Due to Any Cause, Grade 2: 3 (5) number of patients (percent)
Diarrhea, Treatment-Related TEAEs, Any grade: 19 (32) number of patients (percent)
Diarrhea, Treatment-Related TEAEs, Grade 1: 16 (27) number of patients (percent)
Diarrhea, Treatment-Related TEAEs, Grade 2: 3 (5) number of patients (percent)
Dizziness, TEAEs Due to Any Cause, Any grade: 2 (3) number of patients (percent)
Dizziness, TEAEs Due to Any Cause, Grade 1: 2 (3) number of patients (percent)
Dyspepsia, TEAEs Due to Any Cause, Any grade: 4 (7) number of patients (percent)
Dyspepsia, TEAEs Due to Any Cause, Grade 1: 3 (5) number of patients (percent)
Dyspepsia, TEAEs Due to Any Cause, Grade 2: 1 (2) number of patients (percent)
Dyspepsia, Treatment-Related TEAEs, Any grade: 1 (2) number of patients (percent)
Dyspepsia, Treatment-Related TEAEs, Grade 1: 1 (2) number of patients (percent)
Dyspnea exertional, TEAEs Due to Any Cause, Any grade: 2 (3) number of patients (percent)
Dyspnea exertional, TEAEs Due to Any Cause, Grade 1: 2 (3) number of patients (percent)
Dyspnea, TEAEs Due to Any Cause, Any grade: 2 (3) number of patients (percent)
Dyspnea, TEAEs Due to Any Cause, Grade 1: 2 (3) number of patients (percent)
Edema, TEAEs Due to Any Cause, Any grade: 2 (3) number of patients (percent)
Edema, TEAEs Due to Any Cause, Grade 1: 2 (3) number of patients (percent)
Edema, Treatment-Related TEAEs, Any grade: 1 (2) number of patients (percent)
Edema, Treatment-Related TEAEs, Grade 1: 1 (2) number of patients (percent)
Epigastric discomfort, TEAEs Due to Any Cause, Any grade: 1 (2) number of patients (percent)
Epigastric discomfort, TEAEs Due to Any Cause, Grade 2: 1 (2) number of patients (percent)
Epigastric discomfort, Treatment-Related TEAEs, Any grade: 1 (2) number of patients (percent)
Epigastric discomfort, Treatment-Related TEAEs, Grade 2: 1 (2) number of patients (percent)
Epistaxis, TEAEs Due to Any Cause, Any grade: 2 (3) number of patients (percent)
Epistaxis, TEAEs Due to Any Cause, Grade 1: 2 (3) number of patients (percent)
Erysipelas, TEAEs Due to Any Cause, Any grade: 1 (2) number of patients (percent)
Erysipelas, TEAEs Due to Any Cause, Grade 2: 1 (2) number of patients (percent)
Erysipelas, Treatment-Related TEAEs, Any grade: 1 (2) number of patients (percent)
Erysipelas, Treatment-Related TEAEs, Grade 2: 1 (2) number of patients (percent)
Fatigue, TEAEs Due to Any Cause, Any grade: 12 (20) number of patients (percent)
Fatigue, TEAEs Due to Any Cause, Grade 1: 10 (17) number of patients (percent)
